According to PubChem BioAssay (NCI):
Values joined by “and” are separate entries in the source; they are usually repeats but may differ in a detail not shown here. Equal entries are not always repeated.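 48-hour exposure; five concentrations; linearly interpolated endpoints. GI50 marks 50% less growth. The concentration for full growth arrest is given as TGI.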

Columns and labels:
Assay in all cases: DTP human tumour cell line panel, 48 h
[1] = tested on: OVCAR-3 ovarian
[2] = tested on: SF-295 CNS
[3] = tested on: SF-268 CNS
[4] = tested on: CAKI-1 renal
[5] = tested on: OVCAR-8 ovarian
[6] = tested on: COLO 205 colon
[7] = tested on: MALME-3M melanoma
[8] = tested on: LOX IMVI melanoma
[9] = tested on: SNB-75 CNS
[10] = tested on: MDA-MB-435

SMILES	GI50 [1]	TGI [1]	GI50 [2] [µM]	TGI [2] [µM]	GI50 [3]	TGI [3] [µM]	GI50 [4] [µM]	TGI [4] [µM]	GI50 [5]	TGI [5] [µM]	GI50 [6] [µM]	TGI [6] [µM]	GI50 [7] [µM]	TGI [7] [µM]	GI50 [8]	TGI [8]	GI50 [9] [µM]	TGI [9] [µM]	GI50 [10] [µM]	TGI [10] [µM]
CC1SC(c2ccc(Cl)cc2Cl)N(NC(=O)C(O)c2ccccc2)C1=O (centres undefined)	28.7 µM	> 100 µM	23.7	> 100	81.3 µM	> 100	60.1	> 100	63.4 µM	> 100	> 100	> 100	70.3	> 100	> 100 µM	> 100 µM	32.1	> 100	74.7	> 100
COc1cc(CNc2oc(-c3ccccc3)c(-c3ccccc3)c2C#N)cc(CN2CCN(C)CC2)c1O	1.76 µM	3.21 µM	1.87	3.49	1.79 µM	3.7	1.68	3.17	2.56 µM	10.1	1.98	4.05	1.85	3.41	1.67 µM	3.18 µM	1.33	2.94	1.77	3.26
O=C(Nc1cccc(C(F)(F)F)c1)Oc1ccc(Cl)c2cccnc12	0.832 µM	6.93 µM	0.976	6.93	1.36 µM	16.6	2.03	4.79	0.906 µM	6.16	2.48	6.39	1.18	3.96	0.764 µM	4.02 µM	2.59	17.8	1.89	9.5
Nc1ccc(/C=C/c2ccc3cccnc3c2)cc1		> 100 µM		> 100		> 100		> 100		> 100		> 100		> 100		> 100 µM		> 100		> 100
CC(SCc1ccccc1)C(=O)O (centres undefined)		> 100 µM		> 100		> 100		> 100		> 100		> 100		> 100		> 100 µM		> 100		> 100
O=c1[nH]c(=O)n(C2CC(O)C(CO)O2)cc1C(F)(F)F (centres undefined)	> 77.4 µM	> 100 µM	2.79	> 100	3.14 µM	> 100	1.79	> 100	5.12 µM	> 100	25	> 100	> 49.9	> 100	0.936 µM	> 100 µM	> 40.9	> 100	5.31	> 100
Cc1cc(O)c(-c2ccc([C@@H](C)CN(C)C)cc2)c2c1[nH]c(=O)c1sccc12	0.613 µM	6.17 µM	0.73	6.07	1.14 µM	14.8	1.82	33.4	0.983 µM	34.9	2.18	5.2	1.53	4.59	0.785 µM	27.5 µM	0.206	3.02	0.981	15.2
O=C(O)c1ccc(SSc2ccc(C(=O)O)cn2)nc1		> 100 µM		> 100		> 100		> 100		> 100		> 100		> 100		> 100 µM		> 100		> 100
CNC(=O)c1cncc(/C=C/c2ccccc2Cl)c1	> 25 µM	> 25 µM	> 25	> 25	> 25 µM	> 25	> 25	> 25	> 25 µM	> 25	> 25	> 25	> 25	> 25	> 25 µM	> 25 µM	> 19.7	> 25	> 25	> 25
COC(=O)[C@H](Cc1cn(C)cn1)NC(=O)[C@H](Cc1ccccc1)NC(=O)Nc1cc(C(F)(F)F)cc(C(F)(F)F)c1	2.25 µM and 3.46 µM	5.42 µM and 11.1 µM	16.4	31.5	4.26 µM and 10.2 µM	23.8	17.1	31.7	8.26 µM and 9.71 µM	22.7	15.3	31.6	18.2	34.2	2.5 µM and 7.46 µM	9.27 µM and 20.6 µM	15.6	30	15.3	29.4
C[C@]12C[C@H](O)[C@H]3[C@@H](CCC4=CC(=O)CC[C@@]43C)[C@@H]1CC[C@@H]2c1csc(-c2ccccc2)n1		> 100 µM		> 100		> 100		> 100		> 100		> 100		97.3		> 100 µM		> 82.7		> 100
NC(Cc1ccccc1)c1nccs1 (centres undefined)		> 100 µM		> 100		> 100		> 100		> 100		> 100		> 100		> 100 µM		> 100		> 100
COc1cc2nccc(Oc3ccc(NC(=O)c4cn(C(C)C)c(=O)n(-c5ccc(F)cc5)c4=O)cc3F)c2cc1OC	> 41.4 µM	> 100 µM	0.435	> 100	4.51 µM	> 51.6	1.91	6	> 48.4 µM	> 100	> 100	> 100	2.39	11.8	> 100 µM	> 100 µM	1.03	> 21.9	> 100	> 100
CCN(Cc1c(F)cccc1Cl)c1ccc(CO)c(Cl)c1	< 0.034 µM	0.297 µM	0.178	15.7	16.4 µM	31.4	1.2	17.4	7.65 µM	23.9	0.694	6.13	14.1	28.6	18 µM	33.5 µM	11.1	25.5	10.9	24.3
CCn1c2ccccc2c2cc(C(=O)c3ccc(C)c4ccccc34)ccc21	0.308 µM	0.938 µM	0.273	0.936	0.877 µM	> 100	1.61	> 100	0.493 µM	> 100	0.249	0.728	0.5	> 100	0.323 µM	1.62 µM			0.161	0.378
CS(=O)(=O)N(c1cc(-c2ccc3ncnc(Nc4ccc(F)c(Cl)c4)c3c2)cnc1Cl)S(C)(=O)=O	0.728 µM	4.24 µM	1.25	4.92	0.868 µM	7.61	0.553	3.98	2.17 µM	15.5	1.32	5.93	0.267	2.12	0.879 µM	4.73 µM	0.0739	0.698	1.83	17.2
Cc1ccc(C(=O)NC2CC2)cc1-c1ccc2[nH]ncc2c1	> 25 µM	> 25 µM	> 25	> 25	> 25 µM	> 25	> 25	> 25	> 25 µM	> 25	> 25	> 25	> 25	> 25	> 25 µM	> 25 µM	> 13	> 25	> 25	> 25
CO/N=C(\COc1ccc2oc(-c3ccccc3)cc(=O)c2c1)c1ccc(F)cc1	> 100 µM	> 100 µM	> 100	> 100			> 100	> 100	21 µM	47.6	59.5	> 100	30.3	67.1	25.2 µM	77.9 µM	17.4	40.6	> 100	> 100
COC(=O)N[C@H]1CCc2c(Cl)c(OC)c(OC)c(OC)c2-c2ccc(SC)c(=O)cc21	< 0.01 µM	< 0.01 µM			< 0.01 µM	> 100	< 0.0208	48.3	< 0.01 µM	> 100	< 0.01	0.0303	< 0.01	30.5	< 0.01 µM	18.6 µM	< 0.01	> 81.2	< 0.01	< 0.01
O=P(O)(O)OCC1OC(n2cnc3c(NCc4ccccc4)ncnc32)C(O)C1O (centres undefined)	0.691 µM	2.16 µM	3.09	21.8	2.03 µM	> 100	1.4	14.3	0.587 µM	6.92	2.37	8.53	6.64	> 100	0.334 µM	1.47 µM	0.987	> 44.1	3.23	> 100
C[C@@H]1CC[C@@]2(NC1)O[C@H]1C[C@H]3[C@@H]4CC[C@H]5C[C@@H](O)CC[C@]5(C)[C@H]4CC[C@]3(C)[C@H]1[C@@H]2C		> 100 µM		> 100		> 100		> 100		54.7		> 100		> 100		> 100 µM		> 100		> 100
CC1=NOC(=O)/C1=C/c1ccc2c(c1)OCO2		98.9 µM		69.6		> 100		36.4		86.3		32.4		> 100		36.1 µM		57.5		56.6
CC(C)(C)OC(=O)N[C@@H](Cc1ccccc1)C(=O)N(Cc1ccccc1)C1(C(=O)NCc2ccccc2)CCN(Cc2ccccc2)CC1	3.95 µM	> 100 µM	2.9	> 100	4.88 µM	> 100	2.32	> 100	3.51 µM	> 100	1.65	3.32	3.02		3.65 µM	21.2 µM	2.97	> 100	3.04	> 100
C=C(C)[C@@H]1CC[C@]2(C(=O)NS(=O)(=O)c3ccccc3)CC[C@]3(C)[C@H](CC[C@@H]4[C@@]5(C)CC[C@H](OC(=O)NS(=O)(=O)c6ccccc6)C(C)(C)[C@@H]5CC[C@]43C)[C@@H]12	1.85 µM	3.62 µM	0.281	2.23	3.03 µM	32.1	3.06	22.5	2.89 µM	19.1	1.54	3.08	2.09	5.32	1.56 µM	3.06 µM	3.44	18.5	1.77	4.89
CCOC(=O)CN1C(=O)c2cc([N+](=O)[O-])cc3cc([N+](=O)[O-])cc(c23)C1=O		> 100 µM		> 100		> 94.6		> 100		> 100		> 100		> 100		> 100 µM		> 100		> 100
C=C1CCC2C3(C)COC(c4ccccc4Cl)OC3CCC2(C)C1/C=C/C1=CCOC1=O (centres undefined)	26.2 µM	> 100 µM	3.48	> 100	> 100 µM	> 100	4.08	> 100	13.8 µM	> 100	17.9	> 100	17.2	> 100	6.77 µM	> 100 µM	> 100	> 100	9.89	> 100
CN1CCN(CCCOc2cc(O)c3c(=O)cc(-c4ccccc4)oc3c2)CC1	20.8 µM	54.9 µM	21.1	44.5	20.1 µM	48.7	15.1	33.4	37.1 µM	> 100	15.5	31.6	20.8	42.6	14.1 µM	28.4 µM			13.7	32.9
CCOC(=O)/C=C/c1cccc(F)c1						> 100		> 100		> 100		> 100		> 100		> 100 µM		> 100		> 100
